Source: US20100285959A1, “HERBICIDAL MIXTURES” (priority 2006, published 2010)

Key:
[1] = system: giant foxtail (SETFA); assay: Test 5 field trial, postemergence; type: in vivo, Setaria faberi
Excerpt: (§1) Corn seeds (hybrid ‘Pioneer 38H69’) were planted in mid spring season, 5.1 cm deep in a silty clay loam soil having 3% organic matter and a pH of 6.5. Plots were 9.1 m long by 3.0 m wide with rows spaced 76 cm apart. The field was managed using conventional tillage practices. […] All treatments included a surfactant except glufosinate treatments, both alone and in combination. […] Results are summarized in Table 5 and are the means of the three replicates.

[2] = system: velvetleaf (ABUTH); assay: Test 8 field trial, preemergence; type: in vivo, Abutilon theophrasti
Excerpt: (§2) Corn seeds (hybrid ‘Pioneer 31G96’) were planted in mid spring season, 3.8 cm deep in a clay loam soil having 2% organic matter and a pH of 6.6. Plots were 6.1 m long by 3.0 m wide with rows spaced 76 cm apart. Seeds were spaced 15 cm apart within the rows. The field was managed using conventional tillage practices. […] A few of the weed species could not be evaluated at every timing. […] Results are the means of the three replicates.

[3] = system: corn (ZEAMD); assay: Test 5 field trial, postemergence; type: in vivo, Zea mays ssp. indentata
Excerpt: as §1

[4] = system: yellow foxtail (SETLU); assay: Test 1 field trial, preemergence; type: in vivo, Setaria glauca; details: 56 DAA
Excerpt: (§3) Corn seeds (hybrid ‘Pioneer 34N43’) were planted in mid spring season, 3.8 cm deep in a silt loam soil having 4.6% organic matter and a pH of 6. Plots were 10.7 m long by 1.5 m wide with rows spaced 76 cm apart. Seeds were spaced 18 cm apart within the rows. The field was managed using conventional tillage practices. […] Results are summarized in Table 1 and are the means of the three replicates. […] Colby's Equation (Colby, S. R. “Calculating Synergistic and Antagonistic Responses of Herbicide Combinations,” Weeds, 15(1), pp 20-22 (1967)) calculates the expected additive effect of herbicidal mixtures, and for two active ingredients is of the form:
(§4) Pa+b=Pa+Pb−(PaPb/100) • wherein Pa+b is the percentage effect of the mixture expected from additive contribution of the individual components, • Pa is the observed percentage effect of the first active ingredient at the same use rate as in the mixture, and • Pb is the observed percentage effect of the second active ingredient at the same use rate as in the mixture.

[5] = system: velvetleaf (ABUTH); assay: Test 6 field trial, postemergence; type: in vivo, Abutilon theophrasti
Excerpt: (§5) Corn seeds (hybrid ‘Pioneer 35Y62’) were planted in mid spring season, 3.8 cm deep in a silt loam soil having 4% organic matter and a pH of 5.8. Plots were 10.7 m long by 1.5 m wide with rows spaced 76 cm apart. Seeds were spaced 18 cm apart within the rows. The field was managed using conventional tillage practices. […] All treatments included a surfactant except glufosinate treatments, both alone and in combination. […] Results are summarized in Table 6 and are the means of the three replicates.

[6] = system: corn (ZEAMD); assay: Test 10 field trial, preemergence; type: in vivo, Zea mays ssp. indentata
Excerpt: (§6) Corn seeds (hybrid ‘Pioneer 33P65 RR’) were planted in mid spring season, 2.5 cm deep in a silt loam soil. Plots were 9.1 m long by 3.0 m wide with rows spaced 76 cm apart. The field was managed using conventional tillage practices. […] Results are the means of the three replicates.

[7] = system: yellow foxtail (SETLU); assay: Test 5 field trial, postemergence; type: in vivo, Setaria glauca
Excerpt: as §1

[8] = system: redroot pigweed (AMARE); assay: Test 6 field trial, postemergence; type: in vivo, Amaranthus retroflexus
Excerpt: as §5

[9] = system: common lambsquarters (CHEAL); assay: Test 1 field trial, preemergence; type: in vivo, Chenopodium album
Excerpt: as §3, §4

[10] = system: velvetleaf (ABUTH); assay: Test 10 field trial, preemergence; type: in vivo, Abutilon theophrasti; details: 28 DAA
Excerpt: as §6

[11] = system: goosegrass (ELEIN); assay: Test 11 field trial, preemergence; type: in vivo, Eleusine indica
Excerpt: Corn seeds (hybrid ‘Pioneer 3041’) were planted in mid spring season, 5 cm deep in a clay soil having 2.6% organic matter and a pH of 5.6. Plots were 8 m long by 1.5 m wide with rows spaced 80 cm apart. Seeds were spaced 15 cm apart within the rows. The field was managed using conventional tillage practices. […] Treatments consisted of Compound 2 or
Goosegrass was not evaluated 16 or 91 days after application.

[12] = system: redroot pigweed (AMARE); assay: Test 8 field trial, preemergence; type: in vivo, Amaranthus retroflexus; details: 56 DAA
Excerpt: as §2

[13] = system: shepherd's purse (CAPBP); assay: Test 5 field trial, postemergence; type: in vivo, Capsella bursa-pastoris
Excerpt: as §1

[14] = system: common waterhemp (AMATA); assay: Test 10 field trial, preemergence; type: in vivo, Amaranthus tamariscinus; details: 28 DAA
Excerpt: as §6

[15] = system: corn (ZEAMD); assay: Test 8 field trial, preemergence; type: in vivo, Zea mays ssp. indentata
Excerpt: as §2

[16] = system: giant foxtail (SETFA); assay: Test 6 field trial, postemergence; type: in vivo, Setaria faberi
Excerpt: as §5

[17] = 16 DAA, Cpd 2 30 g a.i./ha alone or with glufosinate 470 or glyphosate 1120
[18] = 16 DAA, Cpd 2 60 g a.i./ha alone or with atrazine 1120, glufosinate 470 or glyphosate 1120
[19] = 31 DAA, Cpd 2 30 g a.i./ha alone or with glufosinate 470 or glyphosate 1120
[20] = 31 DAA, Cpd 2 60 g a.i./ha alone or with atrazine 1120, glufosinate 470 or glyphosate 1120
[21] = 19 DAA, g a.i./ha: Cpd 2 100, Atrazine 1680, S-Metolachlor 1870
[22] = 29 DAA, g a.i./ha: Cpd 2 100, Atrazine 1680, S-Metolachlor 1870
[23] = 56 DAA, g a.i./ha: Cpd 2 50, S-Metolachlor 1870
[24] = 56 DAA, g a.i./ha: Cpd 2 100, Atrazine 1680, S-Metolachlor 1870
[25] = 56 DAA, g a.i./ha: Cpd 2 150, S-Metolachlor 1870
[26] = g a.i./ha: Cpd 2 50, S-Metolachlor 1870
[27] = g a.i./ha: Cpd 2 100, Atrazine 1680, S-Metolachlor 1870
[28] = g a.i./ha: Cpd 2 150, S-Metolachlor 1870
[29] = 28 DAA, g a.i./ha: Cpd 2 100, Atrazine 1680, S-Metolachlor 1870
[30] = 30 DAA, Cpd 2/Cpd 1 at 62 g a.i./ha, alone or + atrazine 1500 or metolachlor 2500
[31] = 30 DAA, Cpd 2/Cpd 1 at 125 g a.i./ha, alone or + atrazine 1500 or metolachlor 2500
[32] = 62 DAA, 62 g a.i./ha, scale 0 to 100
[33] = 62 DAA, 125 g a.i./ha, scale 0 to 100
[34] = 16 DAA, atrazine 1120, glufosinate 470 or glyphosate 1120 g a.i./ha alone
[35] = 31 DAA, atrazine 1120, glufosinate 470 or glyphosate 1120 g a.i./ha alone

## COC(=O)c1nc(C2CC2)nc(N)c1Cl [Compound 2, methyl 6-amino-5-chloro-2-cyclopropyl-4-pyrimidinecarboxylate]
[1]; [17]
  SETFA Obs: 0%
[1]; [18]
  SETFA Obs: 0%
[1]; [19]
  SETFA Obs: 0%
[1]; [20]
  SETFA Obs: 2%
[2]; 19 DAA, g a.i./ha: Cpd 2 50, S-Metolachlor 1870
  ABUTH Obs: 28%
[2]; [21]
  ABUTH Obs: 45%
[2]; 19 DAA, g a.i./ha: Cpd 2 150, S-Metolachlor 1870
  ABUTH Obs: 58%
[2]; 29 DAA, g a.i./ha: Cpd 2 50, S-Metolachlor 1870
  ABUTH Obs: 43%
[2]; [22]
  ABUTH Obs: 68%
[2]; 29 DAA, g a.i./ha: Cpd 2 150, S-Metolachlor 1870
  ABUTH Obs: 90%
[2]; [23]
  ABUTH Obs: 18%
[2]; [24]
  ABUTH Obs: 60%
[2]; [25]
  ABUTH Obs: 85%
[3]; hybrid Pioneer 38H69, corn (Zea mays ssp. indentata), in vivo, 16 days after application
  ZEAMD Obs: 0%
[3]; hybrid Pioneer 38H69, corn (Zea mays ssp. indentata), in vivo, 31 days after application
  ZEAMD Obs: 0%
[4]; [26]
  SETLU Obs: 0
[4]; [27]
  SETLU Obs: 0
[4]; [28]
  SETLU Obs: 0
[5]; 14 DAA, 30 g a.i./ha
  ABUTH Obs: 0%
[5]; 14 DAA, 60 g a.i./ha
  ABUTH Obs: 0%
[5]; 28 DAA, 30 g a.i./ha
  ABUTH Obs: 0%
[5]; 28 DAA, 60 g a.i./ha
  ABUTH Obs: 0%
[6]; hybrid Pioneer 33P65 RR, corn (Zea mays ssp. indentata), in vivo, 28 days after application
  ZEAMD Obs: 0%
[7]; [17]
  SETLU Obs: 2%
[7]; [18]
  SETLU Obs: 0%
[7]; [19]
  SETLU Obs: 0%
[7]; [20]
  SETLU Obs: 2%
[8]; 14 DAA, 30 g a.i./ha
  AMARE Obs: 100%
[8]; 14 DAA, 60 g a.i./ha
  AMARE Obs: 98%
[8]; 28 DAA, 30 g a.i./ha
  AMARE Obs: 100%
[8]; 28 DAA, 60 g a.i./ha
  AMARE Obs: 98%
[9]; 28 DAA, g a.i./ha: Cpd 2 50, S-Metolachlor 1870
  CHEAL Obs: 0
[9]; [29]
  CHEAL Obs: 7
[9]; 28 DAA, g a.i./ha: Cpd 2 150, S-Metolachlor 1870
  CHEAL Obs: 7
[9]; [23]
  CHEAL Obs: 7
[9]; [24]
  CHEAL Obs: 55
[9]; [25]
  CHEAL Obs: 100
[10]; [26]
  ABUTH Obs: 7%
[10]; [27]
  ABUTH Obs: 7%
[10]; [28]
  ABUTH Obs: 13%
[11]; [30]
  ELEIN Obs: 0
[11]; [31]
  ELEIN Obs: 20
[11]; 44 DAA, Cpd 2/Cpd 1 at 62 g a.i./ha, alone or + atrazine 1500 or metolachlor 2500
  ELEIN Obs: 0
[11]; 44 DAA, Cpd 2/Cpd 1 at 125 g a.i./ha, alone or + atrazine 1500 or metolachlor 2500
  ELEIN Obs: 0
[11]; [32]
  ELEIN Obs: 0
[11]; [33]
  ELEIN Obs: 0
[12]; [26]
  AMARE Obs: 45%
[12]; [27]
  AMARE Obs: 100%
[12]; [28]
  AMARE Obs: 100%
[13]; [17]
  CAPBP Obs: 25%
[13]; [18]
  CAPBP Obs: 28%
[13]; [19]
  CAPBP Obs: 0%
[13]; [20]
  CAPBP Obs: 2%
[14]; [26]
  AMATA Obs: 20%
[14]; [27]
  AMATA Obs: 10%
[14]; [28]
  AMATA Obs: 23%
[15]; hybrid Pioneer 31G96, corn (Zea mays ssp. indentata), in vivo, 56 days after application
  ZEAMD Obs: 0%
[16]; 14 DAA, 30 g a.i./ha
  SETFA Obs: 0%
[16]; 14 DAA, 60 g a.i./ha
  SETFA Obs: 0%
[16]; 28 DAA, 30 g a.i./ha
  SETFA Obs: 0%
[16]; 28 DAA, 60 g a.i./ha
  SETFA Obs: 0%

## O=C(O)CNCP(=O)(O)O [Glyphosate]
[1]; [34]
  SETFA Obs: 100%
[1]; [35]
  SETFA Obs: 98%
[3]; [34]
  ZEAMD Obs: 0%
[3]; [35]
  ZEAMD Obs: 0%
[5]; 14 DAA, 1120 g a.i./ha
  ABUTH Obs: 99%
[5]; 28 DAA, 1120 g a.i./ha
  ABUTH Obs: 100%
[7]; [34]
  SETLU Obs: 100%
[7]; [35]
  SETLU Obs: 98%
[8]; 14 DAA, 1120 g a.i./ha
  AMARE Obs: 100%
[8]; 28 DAA, 1120 g a.i./ha
  AMARE Obs: 100%
[13]; [34]
  CAPBP Obs: 98%
[13]; [35]
  CAPBP Obs: 100%
[16]; 14 DAA, 1120 g a.i./ha
  SETFA Obs: 100%
[16]; 28 DAA, 1120 g a.i./ha
  SETFA Obs: 100%

## CCc1cccc(C)c1N(C(=O)CCl)[C@@H](C)COC [S-Metolachlor, S-metolachlor, reference compound]
[2]; [21]
  ABUTH Obs: 28%
[2]; [22]
  ABUTH Obs: 42%
[2]; [24]
  ABUTH Obs: 18%
[4]; g a.i./ha: Atrazine 1680, S-Metolachlor 1870
  SETLU Obs: 100
[6]; [29]
  ZEAMD Obs: 0%
[9]; 28 DAA, g a.i./ha: Atrazine 1680, S-Metolachlor 1870
  CHEAL Obs: 95
[9]; 56 DAA, g a.i./ha: Atrazine 1680, S-Metolachlor 1870
  CHEAL Obs: 23
[10]; [27]
  ABUTH Obs: 37%
[12]; [27]
  AMARE Obs: 100%
[14]; [27]
  AMATA Obs: 70%
[15]; [21]
  ZEAMD Obs: 0%
[15]; [22]
  ZEAMD Obs: 3%
[15]; [24]
  ZEAMD Obs: 5%

## Nc1nc(C2CC2)nc(C(=O)O)c1Cl [Compound 1, 6-amino-5-chloro-2-cyclopropyl-4-pyrimidinecarboxylic acid]
[11]; [30]
  ELEIN Obs: 0
[11]; [31]
  ELEIN Obs: 20
[11]; 44 DAA, 62 g a.i./ha, scale 0 to 100
  ELEIN Obs: 0
[11]; 44 DAA, 125 g a.i./ha, scale 0 to 100
  ELEIN Obs: 0
[11]; [32]
  ELEIN Obs: 0
[11]; [33]
  ELEIN Obs: 0
